Assays:
[1] = test system: osteoclasts; conditions: caused by interaction of osteoclasts (RANK) with osteoblasts (RANKL); cited from earlier work
[2] = in vivo; cited from earlier work
[3] = test system: osteoclasts; conditions: action of GW9508 on GPR40; cited from earlier work
[4] = target: GPR40 (Homo sapiens, UniProt O14842); conditions: cited from earlier work
[5] = test system: R264.7 cells; test: Combined effect of compounds on LPS-stimulated mouse macrophage-derived cells, gene expression by RNA sequencing (Test Example 2); assay type: cell-based; conditions: LPS 100 ng/mL 24 h, free fatty acid (stearic acid) 10 μM, Fasiglifam 10 μM, alone or in combination
Experimental: The combined effect of the compounds on the change when macrophage cells were stimulated by lipopolysaccharide (LPS) derived from bacteria was examined by integrated gene expression analysis using RNA next-generation sequencing. […].7 cells purchased from KAC Co., Ltd. were used in the test. The cells were suspended in DMEM with 10% serum, seeded in a 24-well plate at a concentration of 1.6×10^5 cells/well, and cultured at 37° C. under a 5% CO2 condition. 30 minutes prior to addition of LPS, a free fatty acid at 10 μM and Fasiglifam at 10 μM were added alone or in combination. Stearic acid was used as the free fatty acid. After culturing for 30 minutes after addition of the compound, LPS was added to each well at a concentration of 100 ng/mL. PBS of the same amount as LPS was added to a non-stimulated control group. After culturing for 24 hours with the addition of LPS, the medium was removed, and total RNA was extracted using RNeasy (QIAGEN). mRNA was recovered from the total RNA to prepare a library, and RNA sequencing (Illumina Hiseq) was performed. Samples from the following five groups were sequenced, and the expression level of each gene was estimated from the obtained read count data. […] Further, these expression-fluctuated genes were subjected to a pathway analysis to examine their association with the disease.

Sequence of GPR40 (O14842 whole entry, species assumed): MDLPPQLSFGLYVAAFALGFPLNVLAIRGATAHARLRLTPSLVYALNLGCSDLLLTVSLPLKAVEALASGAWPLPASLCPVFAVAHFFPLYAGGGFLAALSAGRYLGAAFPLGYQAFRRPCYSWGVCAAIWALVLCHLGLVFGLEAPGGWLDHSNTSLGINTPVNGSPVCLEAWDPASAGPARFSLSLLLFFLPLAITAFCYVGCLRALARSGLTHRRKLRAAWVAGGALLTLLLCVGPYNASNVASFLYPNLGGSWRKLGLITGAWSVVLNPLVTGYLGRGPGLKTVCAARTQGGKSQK

O=C(O)CCc1ccc(NCc2cccc(Oc3ccccc3)c2)cc1 [GW9508]
formation of osteoclasts (differentiation and maturation into osteoclasts) [1]: suppressing the formation of osteoclasts | bone loss due to ovariectomy [2]: bone loss due to ovariectomy can be prevented | differentiation into osteoclasts [3]: the differentiation into osteoclasts is suppressed | agonist selectivity GPR40 versus GPR120 [4]: dual agonist for GPR40 and GPR120

CCCCCCCCCCCCCCCCCC(=O)O [Fatty acid, Stearic acid]
AAAS expression level [5]: 0 | BCL2L1 expression level [5]: 0 | C3AR1 expression level [5]: 0 | CCL2 expression level [5]: 0 | CCL3 expression level [5]: 0 | CCL4 expression level [5]: 0 | CD36 expression level [5]: 0 | CSF1R expression level [5]: 0 | CSF3 expression level [5]: 0 | DUSP5 expression level [5]: 0 | EIF4B expression level [5]: 0 | EIF4G2 expression level [5]: 0 | GBP7 expression level [5]: 0 | GRIN1 expression level [5]: 0 | IL7R expression level [5]: 0 | IP6K2 expression level [5]: 0 | LYN expression level [5]: 0 | NF1 expression level [5]: 0 | NOS2 expression level [5]: 0 | PIK3CD expression level [5]: 0 | PIM1 expression level [5]: 0 | PIP5K1C expression level [5]: 0 | PLAUR expression level [5]: 0 | PLEKHO2 expression level [5]: 0 | PPP2CA expression level [5]: 0 | PSMA6 expression level [5]: 0 | PSMA7 expression level [5]: 0 | PSMC2 expression level [5]: 0 | PSMD13 expression level [5]: 0 | PYGB expression level [5]: 0 | RASGRP3 expression level [5]: 0 | SDCBP expression level [5]: 0 | SMPD1 expression level [5]: 0 | SUMO1 expression level [5]: 0 | TNF expression level [5]: 0 | TNFRSF1B expression level [5]: 0 | TNFSF8 expression level [5]: 0 | TNRC6B expression level [5]: 0

Cc1cc(OCCCS(C)(=O)=O)cc(C)c1-c1cccc(COc2ccc3c(c2)OC[C@H]3CC(=O)O)c1 [Fasiglifam, [(3S)-6-({2′,6′-dimethyl-4′-[3-(methylsulfonyl)propoxy]biphenyl-3-yl}methoxy)-2,3-dihydro-1-benzofuran-3-yl]acetic acid]
agonist selectivity GPR40 versus GPR120 [4]: selective agonist for GPR40 | AAAS expression level [5]: 0 | BCL2L1 expression level [5]: 0 | C3AR1 expression level [5]: 0 | CCL2 expression level [5]: 0 | CCL3 expression level [5]: 0 | CCL4 expression level [5]: 0 | CD36 expression level [5]: 0 | CSF1R expression level [5]: 0 | CSF3 expression level [5]: 0 | DUSP5 expression level [5]: 0 | EIF4B expression level [5]: 0 | EIF4G2 expression level [5]: 0 | GBP7 expression level [5]: 0 | GRIN1 expression level [5]: 0 | IL7R expression level [5]: 0 | IP6K2 expression level [5]: 0 | LYN expression level [5]: 0 | NF1 expression level [5]: 0 | NOS2 expression level [5]: 0 | PIK3CD expression level [5]: 0 | PIM1 expression level [5]: 0 | PIP5K1C expression level [5]: 0 | PLAUR expression level [5]: 0 | PLEKHO2 expression level [5]: 0 | PPP2CA expression level [5]: 0 | PSMA6 expression level [5]: 0 | PSMA7 expression level [5]: 0 | PSMC2 expression level [5]: 0 | PSMD13 expression level [5]: 0 | PYGB expression level [5]: 0 | RASGRP3 expression level [5]: 0 | SDCBP expression level [5]: 0 | SMPD1 expression level [5]: 0 | SUMO1 expression level [5]: 0 | TNF expression level [5]: 0 | TNFRSF1B expression level [5]: 0 | TNFSF8 expression level [5]: 0 | TNRC6B expression level [5]: 0
